Results published in ChEMBL document CHEMBL1921758, “Indole alkaloids and quassinoids from the stems of Brucea mollis” (J Nat Prod, 2011).

Tests used:
Assay type in all cases: functional, cell-based
[1] = Cytotoxicity against human […] cells by MTT assay
[2] = system: A549; test: Cytotoxicity against human A549 cells by MTT assay
[3] = system: HCT-8; test: Cytotoxicity against human HCT8 cells by MTT assay
[4] = system: Bel-7402; test: Cytotoxicity against human Bel7402 cells by MTT assay
[5] = system: A2780; test: Cytotoxicity against human A2780 cells by MTT assay

Row | SMILES | IC50 [1] [µM] | IC50 [2] [µM] | IC50 [3] [µM] | IC50 [4] [µM] | IC50 [5] [µM]
1 | CC1=CC(=O)[C@@H](O)[C@]2(C)[C@H]3[C@@H](O)[C@H](O)[C@H](CO)[C@@H]4[C@@H](O)C(=O)O[C@H](C[C@@H]12)[C@@]43C (relative stereo) | 3 | > 10 | 3.36 | 4.4 | > 10
2 | CC1=CC(=O)O[C@H]1[C@@]1(C)C[C@H]2OC(=O)[C@H](O)[C@H]3[C@@H](CO)[C@@H](O)[C@H](O)[C@H]1[C@]32C (relative stereo) | > 10 | > 10 | > 10 | > 10 | > 10
3 | CC1=CC(=O)[C@@H](O)[C@]2(C)[C@H]3[C@@H](O)[C@H](O)[C@]4(C)OC[C@@]35[C@@H](C[C@@H]12)OC(=O)[C@H](O)[C@]54O [BRUCEINE D] | 3.8 | > 10 | 5.81 | 3.51 | > 10
4 | CC1(C)C(=O)C(=O)c2c1[nH]c1ccccc21 [BRUCEOLLINE E] | > 10 | > 10 | > 10 | > 10 | > 10
5 | CC(C)(O)[C@@H](O)Cc1cn([C@@H]2O[C@H](CO)[C@@H](O)[C@H](O)[C@H]2O)c2ccccc12 [BRUCEOLLINE F] | > 10 | > 10 | > 10 | > 10 | > 10
6 | CC1(C)C(=O)C(=O)c2c1[nH]c1cc(O)ccc21 [BRUCEOLLINE H] | > 10 | > 10 | > 10 | > 10 | > 10
7 | CC1(C)c2[nH]c3cc(O)ccc3c2C(=O)[C@@H]1O [BRUCEOLLINE I] | > 10 | > 10 | > 10 | > 10 | > 10
8 | CC1(C)c2[nH]c3ccccc3c2C(=O)[C@@H]1O [BRUCEOLLINE J] | > 10 | > 10 | > 10 | > 10 | > 10
9 | CC1(C)c2[nH]c3ccccc3c2C(=O)[C@@H]1O[C@@H]1O[C@H](CO)[C@@H](O)[C@H](O)[C@H]1O [BRUCEOLLINE K] | > 10 | > 10 | > 10 | > 10 | > 10
10 | CC(C)[C@@H](O)C(=O)c1c[nH]c2ccccc12 [BRUCEOLLINE L] | > 10 | > 10 | > 10 | > 10 | > 10
11 | CC(C)(O)C(=O)Cc1cn([C@@H]2O[C@H](CO)[C@@H](O)[C@H](O)[C@H]2O)c2ccccc12 [BRUCEOLLINE M] | > 10 | > 10 | > 10 | > 10 | > 10
12 | CC(C)(O)[C@@H](O)C[C@]1(O)C(=O)N([C@@H]2O[C@H](CO)[C@@H](O)[C@H](O)[C@H]2O)c2ccccc21 [BRUCEOLLINE N] | > 10 | > 10 | > 10 | > 10 | > 10
13 | COc1cccc2c1C(=O)c1c(O)c3c(c(O)c1C2=O)C[C@@](O)(C(=O)CO)C[C@@H]3O[C@H]1C[C@H](N)[C@H](O)[C@H](C)O1 [DOXORUBICIN] | 0.98 | 0.72 | 0.42 | 0.53 | 0.33
14 | CC1=CC(=O)[C@@H](O)[C@@]2(C)[C@H]1[C@@H](O)[C@H]1OC(=O)[C@H](O)[C@]3(O)[C@]14CO[C@]3(CO)[C@@H](O)[C@H](O)[C@H]24 [YADANZIOLIDE B] | 4.85 | 3.8 | 3.33 | 4.24 | > 10
15 | CC1=CC(=O)[C@@H](O)[C@]2(C)[C@H]3[C@@H](O)[C@H](O)[C@H](CO[C@@H]4O[C@H](CO)[C@@H](O)[C@H](O)[C@H]4O)[C@@H]4[C@@H](O)C(=O)O[C@H](C[C@@H]12)[C@@]43C [YADANZIOLIDE U] | > 10 | > 10 | > 10 | > 10 | > 10
